# Source: article PMC6148290, “Endogenous metabolites of vitamin E limit inflammation by targeting 5-lipoxygenase” (Nature Communications, 2018)
# Assays:
# [1] = molecular target: T1, 12-LO (Homo sapiens, UniProt P18054); assay: 12-LO product formation in A23187/AA-activated PMNL; type: cell-based
# T1 construct: 12-HETE (12-LO product from platelets in PMNL preparations); endogenous in cells; host or cells: platelets contaminating human PMNL preparations
# T1 sequence (P18054 1-663): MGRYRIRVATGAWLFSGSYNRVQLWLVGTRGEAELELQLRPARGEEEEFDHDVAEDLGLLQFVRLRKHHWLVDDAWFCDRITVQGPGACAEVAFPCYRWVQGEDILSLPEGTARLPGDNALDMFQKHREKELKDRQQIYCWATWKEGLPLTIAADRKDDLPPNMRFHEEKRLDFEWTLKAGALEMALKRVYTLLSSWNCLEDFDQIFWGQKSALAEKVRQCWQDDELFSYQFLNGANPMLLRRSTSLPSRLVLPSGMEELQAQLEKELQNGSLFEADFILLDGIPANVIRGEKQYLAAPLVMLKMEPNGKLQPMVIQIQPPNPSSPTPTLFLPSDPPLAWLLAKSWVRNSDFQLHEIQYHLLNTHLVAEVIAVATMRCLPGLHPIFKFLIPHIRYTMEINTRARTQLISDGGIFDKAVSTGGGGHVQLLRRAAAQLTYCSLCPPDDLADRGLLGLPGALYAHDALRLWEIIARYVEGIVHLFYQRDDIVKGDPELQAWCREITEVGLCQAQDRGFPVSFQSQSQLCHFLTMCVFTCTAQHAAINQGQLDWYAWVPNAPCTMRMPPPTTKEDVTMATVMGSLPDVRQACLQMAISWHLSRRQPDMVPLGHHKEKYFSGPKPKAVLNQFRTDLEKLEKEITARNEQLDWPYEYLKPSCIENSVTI
# Protocol: Cells were washed and medium was exchanged. Freshly isolated PMNL (1 × 10^7) and stably transfected HEK-293 (1 × 10^6) cells were suspended in PBS pH 7.4 containing 1 mg/ml glucose and 1 mM CaCl2. […] A23187- and A23187/AA-treated PMNL and A23187/AA-treated HEK-293 (5-LO_wt), HEK-293 (5-LO_3W) and HEK-293 (5-LO_Arg101Asp) cells produced 135 ± 21, 636 ± 112, 300 ± 59, 133 ± 29, 55 ± 9 ng 5-LO products, respectively. PMNL synthesized 29 ± 6 ng 12-HETE and 97 ± 23 ng 15-HETE when challenged with A23187/AA. 5-LO products from monocytes were analyzed by UPLC-MS/MS.
# [2] = LCM quantitation in plasma of healthy volunteers (UPLC-MS/MS); design: species or system human; details: endogenous; ten healthy volunteers
# Protocol: The diversity of LCMs in vivo is poorly investigated and limited to the analysis of plasma[27] and liver. To quantify vitamin E metabolites in plasma and tissues, we developed a sensitive ultraperformance liquid chromatography ESI tandem mass spectrometry (UPLC-MS/MS)-based quantitation method. […] The detection response of α-T-13′-COOH (4a) was linear between 1 and 250 nM (Fig. 2a), with lower limits of detection between 0.5 and 4 nM for ω-carboxylates and 4 and 250 nM for ω-alcohols (Supplementary Table 3).
# Human PMNL, monocytes, PBMC, and platelets were freshly isolated from leukocyte concentrates. The protocols for experiments with human blood and blood cells were approved by the ethical commission of the Friedrich-Schiller-University Jena. […]
# LCMs were separated on an Acquity UPLC BEH C18 column (1.7 µm, 2.1 × 50 mm, Waters) at a flow rate of 0.8 ml/min at 45 °C: 0 to 4.5 min, gradient from 50% mobile phase A (acetonitrile/water, 10/90, 0.07% formic acid)/50% mobile phase B (acetonitrile, 0.07% formic acid) to 100% B; 4.5 to 5.5 min, isocratic at 100% B. Multiple reaction monitoring was used to detect LCMs in the negative ion mode. […] Collision energies and lower limits of quantitation are listed in Supplementary Table 3.
# [3] = molecular target: T2, human recombinant LTC4 synthase (LTC4S) (Homo sapiens, UniProt Q16873); assay: LTC4 synthase activity; type: biochemical
# T2 construct: expressed in transfected cells; host or cells: HEK-293 cells stably expressing LTC4S (microsomal membranes)
# T2 sequence (Q16873 1-150): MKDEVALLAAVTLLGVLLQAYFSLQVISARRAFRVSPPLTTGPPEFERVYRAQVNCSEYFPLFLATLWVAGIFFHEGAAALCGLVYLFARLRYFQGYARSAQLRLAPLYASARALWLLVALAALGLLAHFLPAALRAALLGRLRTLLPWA
# Protocol: To investigate the effect of LCMs on LTC4S activity, we used microsomal membranes from HEK-293 cells stably expressing LTC4S[70]. […] The conversion of LTA4 to LTC4 methyl esters was initiated by addition of LTA4 methyl ester (Cayman Chemicals; 1 µM). After 10 min at 4 °C, the reaction was terminated by ice-cold methanol (one volume), and LTC-d5 methyl ester (5 ng; Cayman Chemicals) was added as internal standard. LTC4 was extracted and analyzed by UPLC-MS/MS as described for lipid mediators. Vehicle (DMSO)-treated microsomal membranes produced 7.1 ± 0.5 nmol LTC4.
compound,measurement,setting,value
"Cc1c(C)c2c(c(C)c1O)CC[C@@](C)(CCCC(C)CCCC(C)CCCC(C)C(=O)O)O2 (stereo partly drawn) [4a, 13-((2R)-6-hydroxy-2,5,7,8-tetramethylchroman-2-yl)-2,6,10-trimethyltridecanoic acid]",IC50,[1],> 3 µM
same,"12-LO product formation/PMNL, residual activity","[1]; at 3 µM, mean ± s.e.m., n = 3, n.i. no inhibition",55.3 ± 1.7 % of control
same,α-T-13′-COOH (4a) concentration in human plasma,[2],8 to 49 nM
same,IC50,[3],9.9 µM
